From patent EP1285919A1, “C10 Carbonate substituted taxanes as antitumor agents” (Florida State University Research Foundation, Inc., priority 2001, dated 2003)

What was measured:
[1] = test system: SK-MES carcinoma
Description: (§1) In Vivo Evaluation of Antitumor Compounds Against Human Lung Carcinoma Xenografts
(§2) The compounds were prepared in the manner as described for Solution 2 of Example 10. Taxol (paclitaxel, Bristol Meyers Squibb), used as a control, was obtained as the marketed pharmaceutical drug.
(§3) Taxol itself was given as a split i.v. dose of 36 mg/kg, with the two 18 mg/kg doses separated by one hour. Vehicle control animals were dosed twice intravenously with half the total volume being given separated by one hour. The study was terminated on Day 60.
(§4) The results are summarized in Table 1 and include mean days of survival (MDS), number of toxic deaths, number of survivors, number of complete or partial responses, and number with stable disease. The mean days of survival is the number of days after which a SKMES neoplasm reached a size of 1.5 g and the animal was euthanized. A complete response is obtained if the tumor is not palpable at the end of the study. A partial response is obtained if the tumor shrinks to a size smaller than its size on Day 1 of the study.
(§5) A tumor scoring system was designed to provide a more quantitative ranking of efficacy (therapeutic potential) among the antitumor agents evaluated against the different human solid tumor xenografts. Each mouse in a study was given a score of from 1 to 10 at the end of the study. The scores can be summarized as follows:
(§6) The individual score for each mouse was averaged into a mean score for each treatment group. […]

[2] = test system: NCI-H1299 (H1299) carcinoma
Description: as §1, §2, §3, §4, §5, §6
The treatment protocol for the H1299 test was identical to the SK-MES test protocol. […]

[3] = test system: SKMES Human Lung Carcinoma Xenograft; conditions: Group 3: 40 mg/kg single oral bolus Day 1, 6 mice, study to Day 60
Description: The compound was administered as a single bolus by the oral route in a study to investigate the efficacy of this compound against the SKMES human lung cancer xenograft.
Female Nu/Nu mice (6-8 weeks of age; implanted with 1 mm^3 SKMES lung carcinoma fragments in the flank) were sorted into four treatment groups of six mice each. SKMES size ranges and group mean SKMES size ranges were 126-448 mg and 238-241 mg, respectively. […] Treatments were administered as a single oral bolus on Day 1, and the study was terminated on Day 60.
The results are summarized in Table 13 and include mean days of survival (MDS), number of toxic deaths, number of survivors, number of complete or partial responses, and number with stable disease. The mean days of survival is the number of days after which a SKMES neoplasm reached a size of 2.0 g and the animal was euthanized. A complete response is obtained if the tumor is not palpable at the end of the study. A partial response is obtained if the tumor shrinks to a size smaller than its size on Day 1 of the study.
The total response rate was 100% with four complete responses and two partial responses. The total response rate is defined as the percentage of evaluable animals (excluding deaths due to procedure or toxicity) in a group that experience complete or partial responses at the termination of the study.

[4] = number of mice of six, i.v. split dose qd x 1, Taxol 36 mg/kg, 1755 49 mg/kg

With `CC(=O)O[C@H]1C(=O)[C@@]2(C)[C@H]([C@H](OC(=O)c3ccccc3)[C@]3(O)C[C@H](OC(=O)[C@H](O)[C@@H](NC(=O)c4ccccc4)c4ccccc4)C(C)=C1C3(C)C)[C@]1(OC(C)=O)CO[C@@H]1C[C@@H]2O` [Taxol] the “survival extension compared to vehicle controls” value ([1]; Taxol 36 mg/kg i.v.) was 30%, the “MDS (n)” value ([1]; mean days of survival until tumor 1.5 g, i.v. split dose qd x 1, Taxol 36 mg/kg, 1755 49 mg/kg, six mice per group) was 16 ± 2.0 (6) days and the “Toxic Deaths” value [1, 4] was 0. The Survivors ([1]; number of mice of six, study ended Day 60) was 0, the “Stable Disease” value ([1]; number of mice of six, tumor below 1.5 g at end of study) was 0 and the “Complete Response” value ([1]; number of mice of six, tumor not palpable at end of study) was 0. For the same compound, the “Partial Response” value ([1]; number of mice of six, tumor smaller than on Day 1) was 0, the “Mean Score” value ([1]; tumor score 1 to 10 per mouse, averaged per group (10 = complete response)) was 1.3 ± 0.3 and the “survival extension compared to vehicle-treated animals” value ([2]; Taxol 36 mg/kg i.v., five animals) was 10%. For the same compound, the “MDS (n)” value ([2]; mean days of survival, i.v. split dose qd x 1, Taxol 36 mg/kg, 1755 49 mg/kg, six mice per group) was 27.0 ± 4.6 (5) days, the “Complete Response” value ([2]; number of mice of six) was 0 and the “Stable Disease” value ([2]; number of mice of six) was 0. For the same compound, the Survivors ([2]; number of mice of six) was 1, the “Toxic Deaths” value [2, 4] was 0 and the “Mean Score” value ([2]; tumor score 1 to 10 per mouse, averaged per group) was 2.7 ± 1.3. For the same compound, the “MDS (n)” value ([3]; n=6, 2.0 g endpoint) was 13.2 ± 1.4(6) days, the “% Total Response” value [3] was 0% and the “Complete Response” value [3] was 0. The “Partial Response” value [3] was 0, the “Stable Disease” value [3] was 0 and the Survivors [3] was 0. The “Toxic Deaths” value [3] was 0.
